# Reference: publication PMC10369045, “Radiolabelling of peptides with tetrazine ligation based on the inverse electron-demand Diels–Alder reaction: rapid, catalyst-free and mild conversion of 1,4-dihydropyridazines to pyridazines” (RSC Advances, 2023)
# Tests used:
# [1] = Reversed-phase HPLC-RAD/DAD retention of DHP and pyridazine forms; type: physicochemical; conditions: HPLC-RAD/DAD and HPLC-RAD/UV, Kinetex 5 µm C18 250 × 10.0 mm, 20-50% B in 20 min, H2O/ACN + 0.1% TFA, 3 mL/min, room temperature; elution order used as indication of lipophilicity
# Description: The HPLC instruments were equipped with either two channel UV/VIS or a PDA detector, and a NaI(Tl) scintillation detector for detection of radioactivity.
# Table S2. The gradient used for HPLC-RAD/DAD studies.
# Flow rate: 3 mL/min at room temperature
# Column: Phenomenex Kinetex® 5 µm C18 100 Å, LC Column 250 × 10.0 mm
# Eluents: (A) H2O+0.1% Trifluoroacetic acid and (B) ACN +0.1% Trifluoroacetic acid
# [2] = Incubation tests of IEDDA cycloaddition product (conversion of DHPs to oxidized pyridazine form); type: physicochemical; conditions: for Conversion to oxidized form of the peptide cycloadduct: incubation in ≥95% (v/v) water at 60 °C; for Conversion to oxidized form of the peptide cycloadduct / [18F]AmBF3(ox.)-TOC (%): radio-HPLC
# Description: Protic solvents in acidic reaction conditions at various temperatures were used in-order to investigate the conditions that might influence the formation of the oxidized form from DHPs or that might slow down the process. […] The (radio)peaks of [^19F/^18F]6(a, b) (peptide 6, tR = 20 min) were successfully converted (≥97%) to the more polar compound (peptide 6, tR = 17 min) by incubation in increasing amounts of water in acetonitrile (Fig. 2C). When incubating in 75% (v/v) ACN in water for 10 min at 60 °C, the conversion to polar (peptide 6, tR = 17 min) compound was 59% (ESI Table S7 ^†).
# Table S7. Incubation tests of IEDDA cycloaddition product.
# Peptide Peptide Solvent Vol. pH Temp. Time [18F] AmBF3 (ox.)-
# (nmol) (v/v-%) (µL) (°C) (min) TOC (%)
# [3] = Lipophilicity (LogD7.4), shake-flask method
# Description: Lipophilicity. Shake-flask method was used for determining the lipophilicities (LogD7.4) of the radiolabeled
# compounds. LogD7.4 was determined as a distribution of radioactivity between 0.01 M PBS and octanol. The
# purified radiolabeled compound (25 µL) was added to a 1:1 mixture of 1-octanol and 0.02 M PBS (pH 7.4) in
# a 1.5 mL microtube. The mixture was shaken mechanically at 500 rpm for 10 minutes, centrifuged (1000 × g,
# 5 minutes), and the layers were separated, followed by pipetting a sample (500 µL) from each layer into a pre-
# weighed polypropylene tube. The radioactivity in the sample was measured with a Wizard gamma counter.
# The distribution of the radiolabeled compound between the octanol and the PBS layers was calculated
# [4] = tested on: SSTR2-expressing rat pancreatic adenocarcinoma AR42J cells; experiment: Cell uptake assay in AR42J cells; type: cell-based; conditions: oxidized pyridazine form, gamma counting
# Description: Aoct=activity in the octanol phase
# APBS=activity in the PBS phase
# Cell-uptake assay in AR42J
# The cells were cultured in Gibco™ F-12K Medium
# 1×PBS was prepared from Phosphate Buffered Saline
# Tablets (Fisher Bioreagents, Hampton, USA) in water. 1.0 M Sodium hydroxide was purchased from VWR […]
# Chemicals. […] AR42J cells (1×106 per […]
# well) were seeded overnight on 6-well plates.
# Another set of cells were co-incubated in […]
# microtube (=free fraction). […]
# washing the cells with cold 1×PBS. […] 1 M NaOH […]
# microtube (=internalized fraction).
# tumour = conditions: ex vivo biodistribution and PET/CT imaging; tumour uptake efficiently blocked; ref earlier cohort by us; cited from earlier work
# Description: In this study, we report a rapid, mild, and facile method for converting dihydropyridazine cycloaddition products to pyridazine during IEDDA, in only 10 minutes.
smiles,measurement,setting,value
"C[C@@H](O)[C@@H]1NC(=O)[C@H](CCCCN)NC(=O)[C@@H](Cc2c[nH]c3ccccc23)NC(=O)[C@H](Cc2ccc(O)cc2)NC(=O)[C@@H](NC(=O)[C@@H](Cc2ccccc2)NC(=O)CCOCCOCCOCCOCCON=Cc2ccc(CNC(=O)OC3CCCc4cnnc(-c5ccc(CC(=O)NCC[N+](C)(C)C[B-](F)(F)F)cc5)c4CC3)cc2)CSSC[C@@H](C(=O)N[C@H](CO)[C@@H](C)O)NC1=O (stereo partly shown) [[18F]5 (ox.), AmBF3-PEG4-TOC]",Retention time,[1],18.7 min
same,Conversion to oxidized form of the peptide cycloadduct,[2],full conversion
same,logD,[3]; pH 7.4,0.58 ± 0.06
"C[C@@H](O)[C@@H]1NC(=O)[C@H](CCCCN)NC(=O)[C@@H](Cc2c[nH]c3ccccc23)NC(=O)[C@H](Cc2ccc(O)cc2)NC(=O)[C@@H](NC(=O)[C@@H](Cc2ccccc2)NC(=O)CCOCCOCCOCCOCCON=Cc2ccc(C(=O)NCCOCCOCCOCCNC(=O)OC3CCCC4=C(c5ccc(CC(=O)NCC[N+](C)(C)C[B-](F)(F)F)cc5)NN=CC4CC3)cc2)CSSC[C@@H](C(=O)N[C@H](CO)[C@@H](C)O)NC1=O (stereo partly shown) [[18F]6 (DHP, a)]",Retention time,[1],20.6 min
"C[C@@H](O)[C@@H]1NC(=O)[C@H](CCCCN)NC(=O)[C@@H](Cc2c[nH]c3ccccc23)NC(=O)[C@H](Cc2ccc(O)cc2)NC(=O)[C@@H](NC(=O)[C@@H](Cc2ccccc2)NC(=O)CCOCCOCCOCCOCCON=Cc2ccc(C(=O)NCCOCCOCCOCCNC(=O)OC3CCCC4=C(c5ccc(CC(=O)NCC[N+](C)(C)C[B-](F)(F)F)cc5)NN=CC4CC3)cc2)CSSC[C@@H](C(=O)N[C@H](CO)[C@@H](C)O)NC1=O (stereo partly shown) [[18F]6 (DHP, b)]",Retention time,[1],20.2 min
"C[C@@H](O)[C@@H]1NC(=O)[C@H](CCCCN)NC(=O)[C@@H](Cc2c[nH]c3ccccc23)NC(=O)[C@H](Cc2ccc(O)cc2)NC(=O)[C@@H](NC(=O)[C@@H](Cc2ccccc2)NC(=O)CCOCCOCCOCCOCCON=Cc2ccc(C(=O)NCCOCCOCCOCCNC(=O)OC3CCCc4cnnc(-c5ccc(CC(=O)NCC[N+](C)(C)C[B-](F)(F)F)cc5)c4CC3)cc2)CSSC[C@@H](C(=O)N[C@H](CO)[C@@H](C)O)NC1=O (stereo partly shown) [[18F]6, AmBF3-PEG7-TOC]",[18F]AmBF3(ox.)-TOC (%),"[2]; 2 nmol peptide, ACN:H2O (25:75), 60 µL, 60 °C, 15 min, n = 1",84%
same,[18F]AmBF3(ox.)-TOC (%),"[2]; 2.5 nmol peptide, 0.15 mM citrate buffer, 180 µL, pH 3.75, 60 °C, 10 min",9%
same,[18F]AmBF3(ox.)-TOC (%),"[2]; 2.5 nmol peptide, ACN:H2O (25:75), 20 µL, 60 °C, 10 min",89%
same,[18F]AmBF3(ox.)-TOC (%),"[2]; 2.5 nmol peptide, ACN:H2O (40:60), 25 µL, 60 °C, 15 min, n = 1",77%
same,[18F]AmBF3(ox.)-TOC (%),"[2]; 2.5 nmol peptide, ACN:H2O (75:25), 20 µL, 60 °C, 10 min, n = 1",59%
same,[18F]AmBF3(ox.)-TOC (%),"[2]; 5 nmol peptide, 0.01 mM citrate buffer, 180 µL, pH 4, 37 °C, 10 min",4%
same,[18F]AmBF3(ox.)-TOC (%),"[2]; 5 nmol peptide, 0.15 mM citrate buffer, 180 µL, pH 3.75, 37 °C, 10 min",5%
same,[18F]AmBF3(ox.)-TOC (%),"[2]; 5 nmol peptide, 10 x PBS, 180 µL, pH 6.8, 37 °C, 10 min",5%
same,[18F]AmBF3(ox.)-TOC (%),"[2]; 7.5 nmol peptide, ACN:H2O (13:87), 150 µL, 60 °C, 10 min",25%
same,[18F]AmBF3(ox.)-TOC (%),"[2]; 7.5 nmol peptide, ACN:H2O (25:75), 20 µL, 40 °C, 20 min",86%
same,[18F]AmBF3(ox.)-TOC (%),"[2]; 2-50 nmol peptide, ACN:H2O (≥95% H2O), 20-200 µL, 60 °C, 10 min, n = 1",100%
same,Conversion of DHP peak cluster (tR ≈ 20 min) to single oxidized peak (tR = 17 min) at room temperature,"[2]; collected HPLC fraction left at room temperature for 18 hours (overnight), HPLC-DAD and UHPLC-HRMS",total conversion
same,Conversion to oxidized form of the peptide cycloadduct,[2],full conversion
same,"Cell uptake in AR42J cells (specificity, blocking with octreotide)","[4]; 1 million AR42J cells per well, 37 °C, triplicates per timepoint, blocked by co-incubation with excess non-radiolabelled octreotide",specific uptake
same,Internalization by AR42J cells,[4]; internalized fraction after glycine buffer (pH 2.8) wash and 1 M NaOH lysis,internalized by the cells
same,Tumour visualization in vivo,tumour,able to visualize the tumour in vivo
same,LogD7.4,"[3]; shake-flask 1-octanol/PBS (pH 7.4) 1:1, 25 µL purified radiolabelled compound, shaken 500 rpm 10 min, centrifuged 1000 × g 5 min, gamma counter, mean ± SD, n = 3-4, HPLC-separated fractions (DHP a 77%, DHP b 88% pure), listed as [^18F]6(ox.)",−0.73 ± 0.12
